Experimental data reported in patent US11053233B2, “Solid form of (S)-[2-chloro-4-fluoro-5-(7-morpholin-4-yl-quinazolin-4-yl)phenyl]-(6-methoxy-pyridazin-3-yl)-methanol” (Merck Patent GmbH, priority 2017, dated 2021).
Converted amounts (≈) assume the structure as drawn.

Experiments:
[1] = Solubility measurements in biorelevant media (shake flask 24 h, HPLC); assay type: physicochemical
Experimental: Solubility measurements were carried out in accordance with the method described further below.
• Test media: • SGF (Simulated gastric fluid without pepsin) pH 1.2: • 2.0 g sodium chloride were placed in a 1 L volumetric flask and dissolved in around 500 mL water. 80 mL of 1 M hydrochloric acid solution were added and the volume made up to 1 L. • The resulting SGF solution contains: 34.2 mM sodium chloride • FaSSIF (Fasted State Simulated Intestinal Fluid) pH 6.5: • 0.224 g SIF powder (obtained from biorelevant.com) were dissolved in FaSSIF buffer in a 100 mL volumetric flask and made up to volume. The FaSSIF medium was allowed to equilibrate for 2 h at ambient room temperature and used within 48 h of preparation. FaSSIF buffer can be made up by dissolving 0.42 g NaOH pellets, 3.44 g of monobasic sodium phosphate anhydrous and 6.19 g sodium chloride in about 0.9 L of purified water, adjusting the pH to […] with 1 N NaOH or 1 N HCl and making up the volume to 1 L. • The resulting FaSSIF contains: 3 mM sodium taurocholate; 0.75 mM lecithin; 105.9 mM sodium chloride; 28.4 mM monobasic sodium phosphate and 8.7 mM sodium hydroxide. • FeSSIF (Fed State Simulated Intestinal Fluid) pH 5.0: • 1.12 g SIF powder (biorelevant.com) were dissolved in FeSSIF buffer in a 100 mL volumetric flask and made up to volume. It was used within 48 h of preparation. FeSSIF buffer can be made up by dissolving 4.04 g NaOH pellets, 8.65 g of glacial acetic acid and 11.87 g sodium chloride in about 0.9 L of purified water, adjusting the pH to […] with 1 N NaOH or 1 N HCl and making up the volume to 1 L. • The resulting FeSSIF contains: 15 mM sodium taurocholate; 3.75 mM lecithin; 203.2 mM sodium chloride; 101.0 mM sodium hydroxide and 144.1 mM acetic acid. • Solubility Measurements: • Excess amount of substance was weighed into Uniprep® Whatman vials, to which 1 mL of test medium were added. The suspension was shaken for 24 h at 450 rpm (rounds per minute) at 37° C. The pH was measured at 1 h, 6 h and 24 h and the vials were checked for undissolved compound. The pH of the medium was adjusted wherever necessary. After 24 h, the solutions were filtered through 0.2 μm PTFE membrane filter and the filtrates analysed using HPLC after suitable dilutions. • HPLC: • Apparatus: Agilent 1100 • Column: Chromolith® Performance RP-18e100-3 mm, Art. 1.52001 (h) • Wavelength: 282 nm • Injection volume: 5 μL • Column Oven: 37° C. • Auto sampler: 37° C. • Eluent A for HPLC: Formic Acid:Ultrapure water (1:999;v/v) • Eluent B for HPLC: Formic Acid+Acetonitrile (1:999;v/v) • HPLC-Gradient: […]

[2] = Long-term DS (drug substance) stability investigations; assay type: physicochemical; conditions: up to 40° C./75% relative humidity
[3] = biological target: DNA-dependent protein kinase (DNA-PK) (Homo sapiens, UniProt P78527); experiment: Inhibition of DNA-PK activity; assay type: biochemical
[4] = system: xenograft mouse models of human cancer (colon, lung, head and neck, pancreatic); experiment: Combination with ionizing radiation in six xenograft mouse models of human cancer; assay type: in vivo; conditions: oral, 10 min prior to each fraction; IR 2 Gy per day over five days (10 Gy); all models
Experimental: (§1) The therapeutic relevance of DNA-PK inhibition by the drug substance as such was investigated in vivo in combination with ionizing radiation (IR), a clinically established DSB-inducing treatment. The drug substance was tested for activity in six xenograft mouse models of human cancer. The models were chosen from different cancer indications (colon, lung, head and neck, pancreatic), and histological subtypes (adeno, squamous, large cell). Ionizing radiation was administered using a fractionated schedule of 2 Gy per day administered over five consecutive days (total radiation dose=10 Gy). […] 10 min prior to each fraction of radiation (ONC397-1-2AZ, ONC397-1-3AZ, ONC397-1-4AZ, ONC397-1-5AZ, ONC397-1-8AZ).
(§2) The radiotherapy enhancing effect was quantified across the tested models by the time to reaching 400% initial volume for the 150 mg/kg study arms. The resulting Kaplan-Meier plots were compared by the log-rank test.

A549 = conditions: 150 mg/kg oral plus IR 5 x 2 Gy
Experimental: as §1, §2

HCT116 = conditions: 150 mg/kg oral plus IR 5 x 2 Gy
Experimental: as §1, §2

NCI-H460 = conditions: 150 mg/kg oral plus IR 5 x 2 Gy
Experimental: as §1, §2

[5] = system: DNA-PK autophosphorylation in cancer cell lines

## COc1ccc([C@@H](O)c2cc(-c3ncnc4cc(N5CCOCC5)ccc34)c(F)cc2Cl)nn1 [anhydrous disordered crystalline form, (S)-[2-chloro-4-fluoro-5-(7-morpholin-4-yl-quinazolin-4-yl)phenyl]-(6-methoxy-pyridazin-3-yl)-methanol]
[1]; at pH 1.2
  Solubility compared with the anhydrous ordered crystalline compound: more than double the solubility of the crystalline form
[1]; fasted state simulated intestinal fluid (FaSSIF), pH 6.5, thermodynamic from solid, FaSSIF, pH of medium 6.5, 37 °C
  solubility at 24 h: 10 ± 1 µg/mL (≈ 20.8 µM)
[1]; fed state simulated intestinal fluid (FeSSIF), pH 5, thermodynamic from solid, FeSSIF, pH of medium 5.0, 37 °C
  solubility at 24 h: 56 ± 2 µg/mL (≈ 116 µM)
[1]; general statement
  Solubility compared with the anhydrous ordered crystalline compound: significantly better
[1]; simulated gastric fluid without pepsin (SGF), pH 1.2, simulated gastric fluid, thermodynamic from solid, SGF, pH of medium 1.2, 37 °C
  solubility at 24 h: 2020 ± 67 µg/mL (≈ 4200 µM)
[2]
  Chemical and physical stability: high chemical and physical stability

## COc1ccc([C@@H](O)c2cc(-c3ncnc4cc(N5CCOCC5)ccc34)c(F)cc2Cl)nn1 [drug substance, (S)-[2-chloro-4-fluoro-5-(7-morpholin-4-yl-quinazolin-4-yl)phenyl]-(6-methoxy-pyridazin-3-yl)-methanol]
[3]
  Inhibition of DNA-PK activity: potent and selective inhibitor
[4]
  Enhancement of the radiation effect: strong enhancement of the radiation effect
A549
  Enhancement ratio (time to reaching 400% initial volume): 1.5
HCT116
  Enhancement ratio (time to reaching 400% initial volume): 1.5
NCI-H460
  Enhancement ratio (time to reaching 400% initial volume): 2.6
[5]
  Inhibition of DNA-PK autophosphorylation: potent inhibition
